Data set [1] has as its system Hepatitis B virus. The data set is described as follows: Antiviral activity against HBV infected in human HepG2.2.15 cells assessed as inhibition of HBsAg level incubated for 6 days by microplate-based chemiluminescence immunoassay. The data set is classed as functional, organism-based. The note with it: HepG2 2.2.15, 144 h.
Data set [2] deals with HepG2 2.2.15. The experiment in a line: Cytotoxicity against human HepG2.2.15 cells by Cell-titer Glo luminescent assay. In kind it is functional.
Data set [3] is described as follows: Clearance in CD-1 mouse liver microsomes at 0.3 uM pre-incubated for 10 mins followed by NADPH addition incubated for 60 mins by LC-MS/MS analysis. The note with it: time 70 min, read-out: CLH. In kind it is ADME, Microsome. On the technique in general: Microsomes from liver hold many membrane-bound enzymes, among them those of drug oxidation.

In ChEMBL document CHEMBL5537169, “Structure-Activity Relationships and Discovery of (S)-6-Isopropyl-2-methoxy-3-(3-methoxypropoxy)-10-oxo-5,10-dihydro-6H-pyrido[1,2-h][1,7]naphthyridine-9-carboxylic Acid (AB-452), a Novel Orally Available HBV RNA Destabilizer” (J Med Chem, 2024) one finds EC50, CC50 and microsomal CLint data, which are given here for 25 molecules.

A word on the EC50: it is the concentration at which the effect is half-maximal. As usually defined, the CC50 is the concentration giving 50% cytotoxicity.

Where only a bound is given, the exact number is not on record here.

`COCCOc1cc2c(cc1Cl)-c1cc(=O)c(C(=O)O)cn1[C@H](C(C)C)CO2`: in data set [1], the concentration giving a half-maximal response (EC50) turned out to be 53 nM. In data set [2], this molecule gave a CC50 of more than 50000 nM.
For `CC(C)[C@@H]1COc2cc(OCC3CC3)c(Cl)cc2-c2cc(=O)c(C(=O)O)cn21`, in data set [3], the microsomal CLint at 0.3 µM was 1 µL/min/mg. For the same molecule, the EC50 in data set [1] is 32 nM. Further, in data set [2], it took 37000 nM to reach half-maximal cytotoxicity (CC50).
`COc1cccc(Cn2cc(C(C)C)n3cc(C(=O)O)c(=O)cc3c2=O)c1`: the concentration giving a half-maximal response (EC50) in data set [1] was 5000 nM.
Regarding `CC(C)[C@@H]1COc2cc(OCCCCO)c(Cl)cc2-c2cc(=O)c(C(=O)O)cn21`, the microsomal CLint at 0.3 µM in data set [3] was 1 µL/min/mg. Moreover, the EC50 in data set [1] stood at 14 nM. The molecule further displayed a 50% cytotoxic concentration (CC50) in data set [2] of more than 50000 nM.
On to `CCC1(C(C)C)Cc2cc(OCCCOC)c(OC)nc2-c2cc(=O)c(C(=O)O)cn21` (configuration not stated), for which the EC50 in data set [1] was 6 nM. The half-maximal cytotoxic concentration (CC50) in data set [2] was more than 50000 nM.
`COc1cc2c(nc1OC)-c1cc(=O)c(C(=O)O)cn1[C@H](C(C)C)C2`: in data set [1], the EC50 was determined as 7 nM. Besides, the cytotoxic concentration (CC50) in data set [2] is more than 50000 nM.
As to `COc1cc2c(cc1OC)-c1cc(=O)c(C(=O)O)cn1[C@H](C(C)C)C2`, the 50% effective concentration (EC50) in data set [1] came out at 7.3 nM.
`COc1cc2c(nc1OC)-c1cc(=O)c(C(=O)O)cn1C(C(C)C)C2` (configuration not stated): the half-maximal effective concentration (EC50) in data set [1] turned out to be 14 nM. This molecule showed a 50% cytotoxic concentration (CC50) in data set [2] of more than 50000 nM.
With `COCCCCOc1cc2c(cc1Cl)-c1cc(=O)c(C(=O)O)cn1[C@H](C(C)C)CO2`, in data set [3], the microsomal CLint at 0.3 µM was found to be 1 µL/min/mg. In addition, in data set [1], the EC50 amounted to 16 nM. Moreover, the midpoint of cytotoxicity in data set [2], the CC50, lay at 43000 nM.
In the case of `CC(C)C1Cc2sccc2-c2cc(=O)c(C(=O)O)cn21` (configuration not stated), in data set [1], the EC50 worked out at 2400 nM. Further, in data set [2], the CC50 was more than 50000 nM.
`CC(C)[C@@H]1COc2cc(OCC(C)(C)CO)c(Cl)cc2-c2cc(=O)c(C(=O)O)cn21`: the microsomal CLint at 0.3 µM in data set [3] turned out to be 17 µL/min/mg. The concentration for a half-maximal effect (EC50) in data set [1] came out at 12 nM. In data set [2], this molecule showed a CC50 of more than 50000 nM.
For the molecule `COc1cc2c(cn1)-c1cc(=O)c(C(=O)O)cn1C(C(C)C)C2` (configuration not stated), the EC50 in data set [1] stood at 960 nM. This molecule also returned a half-maximal cytotoxic concentration (CC50) in data set [2] of more than 50000 nM.
For `COc1cc2c(cc1Cl)-c1cc(=O)c(C(=O)O)cn1C(C(C)C)CO2` (configuration not stated), in that order: 76 nM and 46000 nM.
In the case of `CC(C)[C@@H]1COc2cc(OCCCN3CCOCC3)c(Cl)cc2-c2cc(=O)c(C(=O)O)cn21`, in data set [3], the microsomal CLint at 0.3 µM amounted to 1 µL/min/mg. Besides, the half-maximal effective concentration (EC50) in data set [1] came to 140 nM. Also, the 50% cytotoxic concentration (CC50) in data set [2] was more than 50000 nM.
For the molecule `CC(C)C1Cc2sc(Cl)cc2-c2cc(=O)c(C(=O)O)cn21` (configuration not stated), in data set [1], the EC50 was found to be 21000 nM. In data set [2], this molecule gave a half-maximal cytotoxic concentration (CC50) of more than 50000 nM.
For `COCc1nc2c(s1)CC(C(C)C)n1cc(C(=O)O)c(=O)cc1-2` (configuration not stated), in that order: 3000 nM and more than 50000 nM.
`COc1ccc(-c2cc(=O)c(C(=O)O)cn2CC(C)(C)C)cc1OC`: in data set [1], the EC50 is 10000 nM.
On to `C=Cc1cc2c(cc1OCCCOC)OC[C@@H](C(C)C)n1cc(C(=O)O)c(=O)cc1-2`, for which the concentration giving a half-maximal response (EC50) in data set [1] is 4 nM. The CC50 in data set [2] is 33000 nM.
As to `COCCCOc1cc2c([nH]c1=O)-c1cc(=O)c(C(=O)O)cn1[C@H](C(C)C)C2`, the 50% effective concentration (EC50) in data set [1] amounted to 450 nM. The 50% cytotoxic concentration (CC50) in data set [2] was more than 50000 nM.
As for `COc1nc2c(cc1OCCCO)C[C@@H](C(C)C)n1cc(C(=O)O)c(=O)cc1-2`, the concentration giving a half-maximal response (EC50) in data set [1] is 7 nM. The CC50 in data set [2] was more than 50000 nM.
Take `COc1nc2c(s1)CC(C(C)C)n1cc(C(=O)O)c(=O)cc1-2` (configuration not stated): in data set [1], the EC50 came to 3800 nM. Also, in data set [2], the 50% cytotoxic concentration (CC50) was more than 50000 nM.
`COc1cc2c(cc1Cl)-c1cc(=O)c(C(=O)O)cn1[C@@H](C(C)C)CO2`: the EC50 in data set [1] worked out at 3500 nM. In addition, the 50% cytotoxic concentration (CC50) in data set [2] is more than 50000 nM.
With `COCCCOc1cc2c(nc1OC)-c1cc(=O)c(C(=O)O)cn1[C@@H](C(C)C)C2`, the EC50 in data set [1] stood at 950 nM. In data set [2], the CC50 is more than 50000 nM.
With `COc1cc2c(nc1OC)-c1cc(=O)c(C(=O)O)cn1[C@@H](C(C)C)C2`, the EC50 in data set [1] amounted to 300 nM. This molecule had a CC50 in data set [2] of more than 50000 nM.
Turning to `COCCOc1cc2c(cc1Cl)-c1cc(=O)c(C(=O)O)cn1[C@@H](C(C)C)CO2`, the EC50 in data set [1] amounted to 780 nM. The same molecule displayed a CC50 in data set [2] of more than 50000 nM.
